Assay results reported in patent US10604509B2, “Nrf2 regulators” (GlaxoSmithKline Intellectual Property Development Limited, priority 2015, dated 2020).
Structures can show the parent of a compound that is named as a salt.

Test system: NQO1 specific enzyme activity in BEAS-2B cells
Test: BEAS-2B NQO1 MTT assay
Assay type: cell-based
Conditions: Homo sapiens, BEAS-2B, 48 h, BEAS-2B cells, 48 hours with compound, MTT readout; read-out: EC50 of NQO1 specific activity induction
Summary of the method: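 NQO1 specific activity, an NRF2 activation marker, read kinetically as absorbance change at 570 nm for 30 min after MTT cocktail addition to crude lysates of BEAS-2B cells exposed 48 h to compound. Three-parameter fit of Delta OD/min against log concentration gives EC50; lysate portion used for Cell Titer Glo.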

| SMILES | EC50 [nM] |
| --- | --- |
| CCn1nnc2c(C)c([C@@H](c3ccc(C)c(Cn4ccnc4CN4CCCCC4)c3)[C@H](C)C(=O)O)ccc21 [Example 201, (2S,3R)-3-(1-Ethyl-4-methyl-1H-benzo[d][1,2,3]triazol-5-yl)-2-methyl-3-(4-methyl-3-((2-(piperidin-1-ylmethyl)-1H-imidazol-1-yl)methyl)phenyl)propanoic Acid] | 100 to 1000 |
| Cc1ccc([C@@H](c2ccc3c(nnn3C)c2C)[C@@H](C)C(=O)O)cc1CN1Cc2cnccc2OC(C)(C)C1 [Example 203, (2R,3S)-3-(1,4-Dimethyl-1H-benzo[d][1,2,3]triazol-5-yl)-3-(3-((2,2-dimethyl-2,3-dihydropyrido[3,4-f][1,4]oxazepin-4(5H)-yl)methyl)-4-methylphenyl)-2-methylpropanoic Acid, 0.2 Formic Acid Salt] | 10 to 100 |
| CC[C@@H]1CN(Cc2cc([C@H](c3ccc4c(nnn4C)c3C)C(C)(C)C(=O)O)ccc2C)Cc2cnccc2O1 [Example 204, (R)-3-(1,4-Dimethyl-1H-benzo[d][1,2,3]triazol-5-yl)-3-(3-(((R)-2-ethyl-2,3-dihydropyrido[3,4-f][1,4]oxazepin-4(5H)-yl)methyl)-4-methylphenyl)-2,2-dimethylpropanoic Acid, 0.5 Ethanol] | 100 to 1000 |
| CC[C@@H]1CN(Cc2cc([C@@H](c3ccc4c(nnn4C)c3C)C(C)(C)C(=O)NS(C)(=O)=O)ccc2C)Cc2cnccc2O1 [Example 205, (S)-3-(1,4-Dimethyl-1H-benzo[d][1,2,3]triazol-5-yl)-3-(3-(((R)-2-ethyl-2,3-dihydropyrido[3,4-f][1,4]oxazepin-4(5H)-yl)methyl)-4-methylphenyl)-2,2-dimethyl-N-(methylsulfonyl)propanamide, Trifluoroacetic Acid Salt] | 100 to 1000 |
| CCn1nnc2c(C)c([C@H](c3ccc(C)c(CN4Cc5ccccc5OC(C)(C)C4)c3)[C@@H](C)C(=O)O)ccc21 [Example 208, (2R,3S)-3-(3-((2,2-Dimethyl-2,3-dihydrobenzo[f][1,4]oxazepin-4(5H)-yl)methyl)-4-methylphenyl)-3-(1-ethyl-4-methyl-1H-benzo[d][1,2,3]triazol-5-yl)-2-methylpropanoic acid, 2 Trifluoroacetic Acid Salt] | 1 to 10 |
| CCn1nnc2c(C)c([C@H](c3ccc(C)c(CN4Cc5cnccc5OC(C)(C)C4)c3)[C@@H](C)C(=O)O)cc(Cl)c21 [Example 209, (2R,3S)-3-(7-Chloro-1-ethyl-4-methyl-1H-benzo[d][1,2,3]triazol-5-yl)-3-(3-((2,2-dimethyl-2,3-dihydropyrido[3,4-f][1,4]oxazepin-4(5H)-yl)methyl)-4-methylphenyl)-2-methylpropanoic Acid] | 1 to 10 |
| CCn1nnc2c(C)c([C@H](c3ccc(C)c(Cn4ccnc4CN4CCCCC4)c3)[C@@H](C)C(=O)O)ccc21 [Example 210, (2R,3S)-3-(1-Ethyl-4-methyl-1H-benzo[d][1,2,3]triazol-5-yl)-2-methyl-3-(4-methyl-3-((2-(piperidin-1-ylmethyl)-1H-imidazol-1-yl)methyl)phenyl)propanoic Acid] | 10 to 100 |
| Cc1ccc(C(c2ccc3c(nnn3C)c2C)C2(C(=O)O)CC2)cc1CN1Cc2cnccc2OC(C)(C)C1 (stereo not drawn) [Example 211, 1-((1,4-Dimethyl-1H-benzo[d][1,2,3]triazol-5-yl)(3-((2,2-dimethyl-2,3-dihydropyrido[3,4-f][1,4]oxazepin-4(5H)-yl)methyl)-4-methylphenyl)methyl)cyclopropanecarboxylic acid, Trifluoroacetic Acid Salt] | 10 to 100 |
| CC[C@@H]1CN(Cc2nc(C(c3ccc4c(nnn4C)c3C)C(C)(C)C(=O)O)ccc2C)Cc2cnccc2O1 (stereo partly drawn) [Example 212, 3-(1,4-Dimethyl-1H-benzo[d][1,2,3]triazol-5-yl)-3-(6-(((R)-2-ethyl-2,3-dihydropyrido[3,4-f][1,4]oxazepin-4(5H)-yl)methyl)-5-methylpyridin-2-yl)-2,2-dimethylpropanoic Acid, Formic Acid Salt] | 10 to 100 |
| CC[C@@H]1CN(Cc2cc(C(c3ccc4c(nnn4C)c3C)C(C)(C)C(=O)O)cnc2C)Cc2cnccc2O1 (stereo partly drawn) [Example 213, 3-(1,4-Dimethyl-1H-benzo[d][1,2,3]triazol-5-yl)-3-(5-(((R)-2-ethyl-2,3-dihydropyrido[3,4-f][1,4]oxazepin-4(5H)-yl)methyl)-6-methylpyridin-3-yl)-2,2-dimethylpropanoic acid, Trifluoroacetic Acid Salt] | 100 to 1000 |
| Cc1ncc(C(c2ccc3c(nnn3C)c2C)C(C)(C)C(=O)O)cc1Cn1ccnc1CC1CCCCCC1 (stereo not drawn) [Example 214, 3-(5-((2-(Cycloheptylmethyl)-1H-imidazol-1-yl)methyl)-6-methylpyridin-3-yl)-3-(1,4-dimethyl-1H-benzo[d][1,2,3]triazol-5-yl)-2,2-dimethylpropanoic Acid, Trifluoroacetic Acid Salt] | 100 to 1000 |
| Cc1ccc([C@H](CC(=O)O)c2ccc3c(nnn3C)c2C)cc1CN1CCCC(Cn2cccn2)C1 (stereo partly drawn) [Example 215, (3S)-3-(3-((3-((1H-Pyrazol-1-yl)methyl)piperidin-1-yl)methyl)-4-methylphenyl)-3-(1,4-dimethyl-1H-benzo[d][1,2,3]triazol-5-yl)propanoic Acid] | 1000 to 10000 |
| CC[C@@H]1CN(Cc2cc(C(CCc3cn(CC)nn3)C(C)(C)C(=O)O)ccc2C)Cc2ncccc2O1 (stereo partly drawn) [Example 216, 5-(1-Ethyl-1H-1,2,3-triazol-4-yl)-3-(3-(((R)-2-ethyl-2,3-dihydropyrido[2,3-f][1,4]oxazepin-4(5H)-yl)methyl)-4-methylphenyl)-2,2-dimethylpentanoic Acid] | 1 to 10 |
| CC[C@@H]1CN(Cc2cc(C(CCc3cn(CC)nn3)C(C)(C)C(=O)O)ccc2C)Cc2cccnc2O1 (stereo partly drawn) [Example 217, 5-(1-Ethyl-1H-1,2,3-triazol-4-yl)-3-(3-(((R)-2-ethyl-2,3-dihydropyrido[3,2-f][1,4]oxazepin-4(5H)-yl)methyl)-4-methylphenyl)-2,2-dimethylpentanoic Acid] | 10 to 100 |
| CC[C@@H]1CN(Cc2cc([C@@H](c3ccc4c(nnn4C)c3C)C(C)(C)C(=O)O)ccc2C)Cc2ncccc2O1 [Example 218, (S)-3-(1,4-Dimethyl-1H-benzo[d][1,2,3]triazol-5-yl)-3-(3-(((R)-2-ethyl-2,3-dihydropyrido[2,3-f][1,4]oxazepin-4(5H)-yl)methyl)-4-methylphenyl)-2,2-dimethylpropanoic Acid, Trifluoroacetate] | 1 to 10 |
| CC[C@@H]1CN(Cc2cc([C@@H](c3ccc4c(nnn4C)c3C)C(C)(C)C(=O)O)ccc2C)Cc2ccncc2O1 [Example 219, (S)-3-(1,4-Dimethyl-1H-benzo[d][1,2,3]triazol-5-yl)-3-(3-(((R)-2-ethyl-2,3-dihydropyrido[4,3-f][1,4]oxazepin-4(5H)-yl)methyl)-4-methylphenyl)-2,2-dimethylpropanoic Acid, Trifluoroacetate] | 1 to 10 |
| CC[C@@H]1CN(Cc2cc(C(CCc3cn(CC)nn3)C(C)(C)C(=O)O)ccc2C)Cc2ccncc2O1 (stereo partly drawn) [Example 220, 5-(1-Ethyl-1H-1,2,3-triazol-4-yl)-3-(3-(((R)-2-ethyl-2,3-dihydropyrido[4,3-f][1,4]oxazepin-4(5H)-yl)methyl)-4-methylphenyl)-2,2-dimethylpentanoic Acid, 3.2 Trifluoroacetic Acid Salt] | 10 to 100 |
| CCn1cc(CCC(c2ccc(C)c(CN3Cc4ncccc4OC(C)(C)C3)c2)C(C)(C)C(=O)O)nn1 (stereo not drawn) [Example 221, 3-(3-((2,2-Dimethyl-2,3-dihydropyrido[2,3-f][1,4]oxazepin-4(5H)-yl)methyl)-4-methylphenyl)-5-(1-ethyl-1H-1,2,3-triazol-4-yl)-2,2-dimethylpentanoic Acid] | 10 to 100 |
| CC[C@@H]1CN(Cc2cc([C@@H](c3ccc4c(nnn4C)c3C)C(C)(C)C(=O)O)ccc2C)Cc2c(ccnc2F)O1 [Example 222, (S)-3-(1,4-Dimethyl-1H-benzo[d][1,2,3]triazol-5-yl)-3-(3-(((R)-2-ethyl-6-fluoro-2,3-dihydropyrido[3,4-f][1,4]oxazepin-4(5H)-yl)methyl)-4-methylphenyl)-2,2-dimethylpropanoic Acid] | < 1 |
| CCn1cc(CCC(c2ccc(C)c(CN3Cc4cccnc4OC(C)(C)C3)c2)C(C)(C)C(=O)O)nn1 (stereo not drawn) [Example 223, 3-(3-((2,2-Dimethyl-2,3-dihydropyrido[3,2-f][1,4]oxazepin-4(5H)-yl)methyl)-4-methylphenyl)-5-(1-ethyl-1H-1,2,3-triazol-4-yl)-2,2-dimethylpentanoic Acid] | 1 to 10 |
| CC[C@@H]1CN(Cc2cc(C(CCc3cn(CC)nn3)C(C)C(=O)O)ccc2C)Cc2ncccc2O1 (stereo partly drawn) [Example 224, 5-(1-Ethyl-1H-1,2,3-triazol-4-yl)-3-(3-(((R)-2-ethyl-2,3-dihydropyrido[2,3-f][1,4]oxazepin-4(5H)-yl)methyl)-4-methylphenyl)-2-methylpentanoic Acid, 0.20 Formic Acid Salt] | 100 to 1000 |
| CCC1CCN(Cc2nccn2Cc2cc(C(CCc3cn(CC)nn3)C(C)(C)C(=O)O)ccc2Cl)CC1 (stereo not drawn) [Example 230, 3-(4-Chloro-3-((2-((4-ethylpiperidin-1-yl)methyl)-1H-imidazol-1-yl)methyl)phenyl)-5-(1-ethyl-1H-1,2,3-triazol-4-yl)-2,2-dimethylpentanoic Acid] | 1 to 10 |
| CC[C@@H]1CN(Cc2cc(C(CCc3cn(CC)nn3)CC(=O)O)ccc2Cl)Cc2ncccc2O1 (stereo partly drawn) [Example 231, 3-(4-Chloro-3-(((R)-2-ethyl-2,3-dihydropyrido[2,3-f][1,4]oxazepin-4(5H)-yl)methyl)phenyl)-5-(1-ethyl-1H-1,2,3-triazol-4-yl)pentanoic Acid] | 100 to 1000 |
| CC[C@@H]1CN(Cc2cc(C(CCc3cn(CC)nn3)CC(=O)O)ccc2C)Cc2cnccc2O1 (stereo partly drawn) [Example 232, 5-(1-Ethyl-1H-1,2,3-triazol-4-yl)-3-(3-(((R)-2-ethyl-2,3-dihydropyrido[3,4-f][1,4]oxazepin-4(5H)-yl)methyl)-4-methylphenyl)pentanoic Acid] | 100 to 1000 |
